One assay has as its system MCF-7-Palbo-R cells. The assay is described as follows: MCF-7-Palbo-R cell antiproliferative assay (BrdU ELISA). The assay is classed as cell-based. To be noted: for pIC50: 72 hours, BrdU; for Bottom(%): bottom of inhibition curve; for Top(%): top of inhibition curve. As to the method: 1. Experimental Materials • MCF-7/palbo-R • EMEM medium (ATCC, 30-2003); DMEM/F12 medium (Gibco-1 1330-032) • Fetal bovine serum (cellmax-SA21 1.02) • DMSO (SIGMA, D2650) • BrdU ELISA cell proliferation assay kit (Roche, 11647229001) • ELISA (e.g. MD-SpectraMax ID5 or EnVision)
2. Experimental protocol • 1. Cell spreading • 1) Cells were counted, the concentration of cell suspension was adjusted • 2) The MCF7/Palbo-R cell suspension was seeded in 96-well plates at […] volume to make the number of cells per well is 4000-5000; • 3) Blank control group was added with 90 μl of culture medium; • 2. […] A 3-fold serial gradient dilution was performed with 0.1% DMSO medium for a total of 9 concentrations, and the concentrations of the compounds after dilution were as follows: • 10000 nM, 3333.33 nM, 1111.11 nM, 370.34 nM, 123.45 nM, 41.15 nM, 13.72 nM, 4.57 nM, and 1.52 nM. • b) After 72 hours of compound treatment. • 1) A 10 mM of Brdu stock solution was diluted with RPMI medium and added to a 96-well plate at 20 uL/well and shaken at 350 rpm for 10 minutes. • 2) The 96 well plate was placed back into the incubator for 1 or 2 hours. • 3) After the medium was removed from the 96-well plate, 200 ul/well of Fixation/Denaturation solution was added and incubated for 30 minutes at room temperature. • 4) The fixation solution was removed and 100 ul of peroxidase-coupled anti-Brdu antibody solution (antibody dilution prepared at 1:100 dilution) was added, • and incubated at 350 rpm for 1 hour at room temperature. • 6) The 96-well plate was washed three times with 300 ul/well of PBS. • 8) 100ul of peroxidase substrate solution was added and shaken at 350 rpm for about 10-20 minutes at room temperature, • until the DMSO-treated cell control wells turn a medium blue color. If a color is too dark, it will cause the absorbance value to out of the reading range. • 9) The reaction was terminated by the addition of 25 ul of 1 M sulfuric acid. Shake to ensure uniform color. • 10) The absorbance at 450 nm was recorded. • 3. Data analysis • The inhibition rate is calculated using the following equation:
IR (%)=(1−(RLU compound−RLU blank)/(RLU control−RLU blank))*100%.
On the technique in general: Uptake of a labelled nucleoside into DNA is a usual measure of proliferation.

The subject of a further assay is OVCAR-3 cells. The assay is described as follows: OVCAR-3 xenograft tumor model. In kind it is in vivo. To be noted: 30 mg/kg, oral tube feeding twice daily for 21 days, BALB/c nude female mice. As to the method:
OVCAR-3 cells were cultured in RPMI1640 culture medium containing 20% fetal bovine serum and 10 μg/mL Insalin. Cells in the exponential growth phase were collected, and the cells were resuspended in the mixed solution of PBS and Matrigel in a ratio of 1:1 to a suitable concentration for subcutaneous tumor inoculation in nude mice.
To establish a xenograft tumor model, 1×10^7 OVCAR-3 cells were suspended in 0.2 mL of a mixture of PBS and Matrigel (1:1) and injected subcutaneously into 6-8-week-old BALB/c nube female mice on the right back. Tumor growth was observed periodically, and the volume (volume=½[…](length×width 2)) was measured with a vernier caliper. When the tumors grew to an average volume of 100˜150 mm^3, the drug was administered to mice (27 days after inoculation) in random groups according to the tumor size and their body weights. […] Tumor volume and animal weight were measured twice a week and continued until the end of the experiment. Dosing day was defined as day 0. Measurement time points were day 0, day 3, day 7, day 10, day 14, day 17 and day 21. All mice were euthanized by cervical dislocation. At the end of the experiment, tumors were collected and weighed to calculate TGI values (see Table 5).

The next assay deals with MV4-11 cells. In words: MV4-11 xenograft tumor model. In kind it is in vivo. To be noted: oral tube feeding twice a day for 15 days, NOD/SCID mice. As to the method:
MV-4-11 cells were cultured in IMEM culture medium containing 10% fetal bovine serum. Cells in the exponential growth phase were collected, and the cells were resuspended in PBS to a suitable concentration for subcutaneous tumor inoculation in nude mice.
To establish a xenograft tumor model, 5×10^6 MV4-11 cells were suspended in 0.1 mL of a 1:1 mixture of PBS and Matrigel and injected subcutaneously into the right dorsal side of 6-8-week-old NOD/SCID mice. Tumor growth was observed periodically, and the volume (volume=½×(length×width^2)) was measured with a vernier caliper. When the tumors grew to an average volume of 100˜150 mm^3, the drug was administered to mice (12 days after inoculation) in random groups according to the tumor size and their body weights. […] Among them, the mice in the Vehicle, 10 mg/kg TY-3301, 10 mg/kg C3, and 20 mg/kg C3 groups were administered twice a day by oral tube feeding for 15 days, and the mice in the 20 mg/kg TY-3300 group were administered once a day by oral tube feeding for 15 days. Tumor volume and animal weight were measured twice a week and continued until the end of the experiment. Dosing day was defined as day 0. Measurement time points were day 0, day 3, day 7, day 10, day 14, and day 15. All mice were euthanized by cervical dislocation. At the end of the experiment, tumors were collected and weighed to calculate TGI values (see Table 6).

Structures are written as SMILES. pIC50: −log10 of the molar value. Where two headings read alike, the source gives them in different places.

Regarding `C[C@@]1(O)CCC[C@H]1n1c(=O)c(OC(F)F)cc2cnc(NC3CCN(S(C)(=O)=O)CC3)nc21` [Example 3], the results for the pIC50 in the assay with MCF-7-Palbo-R cells (read-out: AbsIC50) and with MCF-7-Palbo-R cells (read-out: ReIC50) were 7.44 and 7.42, respectively. Besides, the “Bottom(%)” value with MCF-7-Palbo-R cells stood at 6.317%. For the same compound, in the assay with MCF-7-Palbo-R cells, the “Top(%)” value is reported as 98.857%. Moreover, the TGI with OVCAR-3 cells was found to be 71.3%; with MV4-11 cells (10 mg/kg), 69.5%; with MV4-11 cells (20 mg/kg), 95.3%.

Take `C[C@@]1(O)CCC[C@H]1n1c(=O)c(C(F)F)cc2cnc(NC3CCN(S(C)(=O)=O)CC3)nc21` [PF-06873600, reference compound]: the values for the pIC50 with MCF-7-Palbo-R cells (read-out: AbsIC50) and in the assay with MCF-7-Palbo-R cells (read-out: ReIC50) were 7.27 and 7.31, respectively. The “Bottom(%)” value in the assay with MCF-7-Palbo-R cells is reported as 7.487%. In addition, the “Top(%)” value with MCF-7-Palbo-R cells came to 98.896%. The TGI in the assay on OVCAR-3 cells is 52.6%; in the assay on MV4-11 cells (10 mg/kg) it was 60.9%.

One may read the TGI as the reduction of tumour growth relative to the control group.

The values are drawn from patent US20240287065A1, “COMPOUND AS CDK KINASE INHIBITOR AND USE THEREOF” (TYK MEDICINES (ZHENGZHOU) , INC., priority 2021, published 2024).
